In US20250000843A1, “LIGNAN-INSPIRED COMPOUNDS, METHODS OF MAKING, AND USING THEREOF” (IOWAIBO, INC., priority 2023, published 2025):

Target: telomerase (Homo sapiens, UniProt O14746)
Experiment: Q-TRAP telomerase activity in PC3 prostate cancer cells
Assay type: cell-based
Design: allow the enzymatic addition of telomeric DNA repeats by endogenous telomerase; endogenous in cells; host or cells: PC3 prostate cancer cells (protein extract of lysed cell pellets); key to Significance of RTA difference vs. control: No: non-significant; Yes (*): p < 0.05; Yes (**): p < 0.01; Yes (***): p < 0.001; Yes (****): p < 0.0001
Conditions: for telomerase inhibition effect: PC3 prostate cancer cell line
Description: The general mechanism of the Q-TRAP technique involves cellular pellets being lysed for protein extraction which is then subsequently quantified and stored under specific conditions to avoid protein degradation. Protein obtained in the process was used within 72 hours and samples were stored at 4° C. Telomerase protein extracts are then incubated with a specific oligonucleotide substrate to allow the enzymatic addition of telomeric DNA repeats by endogenous telomerase. Following the enzymatic reaction, telomerase extension products are then amplified and quantified by real-time qPCR. In real time PCR, a positive reaction is detected by accumulation of a fluorescent signal. The Ct (cycle threshold) is defined as the number of cycles required for fluorescence to cross the threshold (i.e.: exceeds background levels). […] Data are reported as relative telomerase activity (RTA). […] Telomeric repeat amplification protocol (TRAP) was modified for quantitative real-time PCR (Q-TRAP) and was used to determine the effect of dibenzyl butyl lactone derivative on telomerase activity in prostate cancer cell. The same methods as used in Example 3 were employed. The same abbreviation scheme as presented in Table 7 is used throughout this example as well.

Chain of telomerase (O14746 whole entry): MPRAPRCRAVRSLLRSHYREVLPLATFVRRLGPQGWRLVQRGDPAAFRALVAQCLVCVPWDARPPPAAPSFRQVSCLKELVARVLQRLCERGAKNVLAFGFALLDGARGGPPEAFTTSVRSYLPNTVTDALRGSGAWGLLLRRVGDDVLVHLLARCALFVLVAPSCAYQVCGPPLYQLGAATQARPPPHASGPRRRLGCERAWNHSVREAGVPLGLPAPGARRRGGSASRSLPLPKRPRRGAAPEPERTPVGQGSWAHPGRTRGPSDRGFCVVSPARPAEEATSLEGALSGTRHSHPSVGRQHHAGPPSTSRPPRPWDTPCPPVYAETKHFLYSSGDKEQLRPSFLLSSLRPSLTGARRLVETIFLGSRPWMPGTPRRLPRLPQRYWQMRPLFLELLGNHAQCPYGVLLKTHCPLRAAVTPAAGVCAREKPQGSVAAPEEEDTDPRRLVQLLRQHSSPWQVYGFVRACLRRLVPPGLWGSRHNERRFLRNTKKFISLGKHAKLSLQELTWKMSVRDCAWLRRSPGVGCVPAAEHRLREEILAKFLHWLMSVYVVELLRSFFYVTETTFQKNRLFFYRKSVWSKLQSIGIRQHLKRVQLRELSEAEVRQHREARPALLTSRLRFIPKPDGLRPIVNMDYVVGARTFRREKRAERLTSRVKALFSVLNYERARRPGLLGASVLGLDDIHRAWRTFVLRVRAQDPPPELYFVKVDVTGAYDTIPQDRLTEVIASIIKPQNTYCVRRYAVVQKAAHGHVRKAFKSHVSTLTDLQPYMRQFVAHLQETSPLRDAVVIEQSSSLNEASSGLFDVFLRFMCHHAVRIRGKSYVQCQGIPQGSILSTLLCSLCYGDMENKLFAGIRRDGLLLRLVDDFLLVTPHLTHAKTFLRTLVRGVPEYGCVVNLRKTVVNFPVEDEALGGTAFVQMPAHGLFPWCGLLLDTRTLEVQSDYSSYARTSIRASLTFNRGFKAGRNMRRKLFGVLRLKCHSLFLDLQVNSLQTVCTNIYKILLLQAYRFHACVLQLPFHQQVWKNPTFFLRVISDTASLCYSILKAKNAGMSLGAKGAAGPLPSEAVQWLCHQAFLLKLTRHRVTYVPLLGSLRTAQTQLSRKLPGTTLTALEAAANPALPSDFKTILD
Chain of telomerase (O60832 whole entry partner): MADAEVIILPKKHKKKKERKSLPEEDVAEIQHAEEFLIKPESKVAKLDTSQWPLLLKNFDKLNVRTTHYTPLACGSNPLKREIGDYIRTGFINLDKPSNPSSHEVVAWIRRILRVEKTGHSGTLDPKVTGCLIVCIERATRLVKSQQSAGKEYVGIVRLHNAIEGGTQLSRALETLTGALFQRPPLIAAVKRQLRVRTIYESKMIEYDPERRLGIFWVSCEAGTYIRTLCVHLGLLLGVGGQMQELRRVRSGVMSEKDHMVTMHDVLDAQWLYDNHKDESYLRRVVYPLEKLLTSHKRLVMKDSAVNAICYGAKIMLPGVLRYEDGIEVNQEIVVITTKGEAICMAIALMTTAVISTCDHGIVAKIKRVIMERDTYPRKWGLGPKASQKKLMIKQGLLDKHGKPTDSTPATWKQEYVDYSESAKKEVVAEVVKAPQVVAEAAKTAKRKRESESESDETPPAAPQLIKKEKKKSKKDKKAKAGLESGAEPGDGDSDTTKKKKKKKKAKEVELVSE
Chain of telomerase (Q9NPE3 whole entry partner): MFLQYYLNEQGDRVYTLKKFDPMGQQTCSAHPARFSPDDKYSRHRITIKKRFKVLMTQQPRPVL
Chain of telomerase (Q9NX24 whole entry partner): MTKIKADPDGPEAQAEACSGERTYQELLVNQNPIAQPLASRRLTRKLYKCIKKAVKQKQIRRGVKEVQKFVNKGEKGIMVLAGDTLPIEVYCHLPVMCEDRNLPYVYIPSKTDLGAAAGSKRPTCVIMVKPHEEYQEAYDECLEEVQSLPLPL
Chain of telomerase (Q9NY12 whole entry partner): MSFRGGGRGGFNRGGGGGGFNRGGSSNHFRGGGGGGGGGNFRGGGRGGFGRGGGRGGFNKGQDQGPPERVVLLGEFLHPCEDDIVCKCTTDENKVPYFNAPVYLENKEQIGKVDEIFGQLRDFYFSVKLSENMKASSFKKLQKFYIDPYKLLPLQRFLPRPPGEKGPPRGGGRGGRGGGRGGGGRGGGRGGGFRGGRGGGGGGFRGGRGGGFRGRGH
Chain of telomerase (Q9BUR4 whole entry partner): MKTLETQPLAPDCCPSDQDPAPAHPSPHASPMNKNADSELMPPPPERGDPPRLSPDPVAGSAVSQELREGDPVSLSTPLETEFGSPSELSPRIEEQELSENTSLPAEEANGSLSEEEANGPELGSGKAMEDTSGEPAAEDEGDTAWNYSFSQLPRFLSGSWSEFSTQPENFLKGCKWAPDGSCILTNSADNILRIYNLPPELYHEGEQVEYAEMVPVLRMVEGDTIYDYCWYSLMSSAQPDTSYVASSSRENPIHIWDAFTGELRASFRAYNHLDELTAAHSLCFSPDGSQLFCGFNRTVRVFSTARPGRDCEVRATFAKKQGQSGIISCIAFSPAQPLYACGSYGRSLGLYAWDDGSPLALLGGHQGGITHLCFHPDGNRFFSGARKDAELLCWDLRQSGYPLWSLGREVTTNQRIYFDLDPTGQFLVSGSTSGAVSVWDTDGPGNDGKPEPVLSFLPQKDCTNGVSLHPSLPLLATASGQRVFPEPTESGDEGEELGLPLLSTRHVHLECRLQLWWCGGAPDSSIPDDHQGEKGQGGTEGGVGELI

## O=C1OCC(Cc2ccc3c(c2)OCO3)/C1=C\c1cccc(O)c1 (single isomer, unassigned) [Enantiomer B, 3-[(3,4-dimethoxyphenyl)cyclopentyl], 4-[(3-hydroxyphenol)methyl]oxolan-2-one]
PC3, 2.5 μM, 24 Hours
  Telomerase Activity RTA (%): 48.73%
PC3, 2.5 μM, 48 Hours
  Telomerase Activity RTA (%): 126.77%
PC3, 2.5 μM, 72 Hours
  Telomerase Activity RTA (%): 13.05%
PC3, 5 μM, 24 Hours
  Telomerase Activity RTA (%): 36.48%
PC3, 5 μM, 48 Hours
  Telomerase Activity RTA (%): 112.17%
PC3, 5 μM, 72 Hours
  Telomerase Activity RTA (%): 11.67%
PC3, 10 μM, 24 Hours
  Telomerase Activity RTA (%): 23.87%
PC3, 10 μM, 48 Hours
  Telomerase Activity RTA (%): 102.96%
PC3, 10 μM, 72 Hours
  Telomerase Activity RTA (%): 12.58%
PC3, 20 μM, 24 Hours
  Telomerase Activity RTA (%): 31.05%
PC3, 20 μM, 48 Hours
  Telomerase Activity RTA (%): 154.17%
PC3, 20 μM, 72 Hours
  Telomerase Activity RTA (%): 7.53%
PC3, 40 μM, 24 Hours
  Telomerase Activity RTA (%): 14.44%
PC3, 40 μM, 48 Hours
  Telomerase Activity RTA (%): 128.83%
PC3, 40 μM, 72 Hours
  Telomerase Activity RTA (%): 13.49%
PC3, 24 h
  IC50: 2.99 µM
PC3, 24 hours
  telomerase activity levels of treated groups compared to control: lower telomerase activity levels compared to control
PC3, 24 hours, 2.5 μM
  Significance of RTA difference vs. control: Yes (*) (Yes (*): p < 0.05)
PC3, 24 hours, 5 μM
  Significance of RTA difference vs. control: Yes (**) (Yes (**): p < 0.01)
PC3, 24 hours, 10 μM
  Significance of RTA difference vs. control: Yes (**) (Yes (**): p < 0.01)
PC3, 24 hours, 20 μM
  Significance of RTA difference vs. control: Yes (**) (Yes (**): p < 0.01)
PC3, 24 hours, 40 μM
  Significance of RTA difference vs. control: Yes (***) (Yes (***): p < 0.001)
PC3, 48 h
  IC50: 15.4 µM
PC3, 48 hours
  telomerase activity levels of treated groups compared to control: the differences were not found to be significant
PC3, 48 hours, 2.5 μM
  Significance of RTA difference vs. control: No
PC3, 48 hours, 5 μM
  Significance of RTA difference vs. control: No
PC3, 48 hours, 10 μM
  Significance of RTA difference vs. control: No
PC3, 48 hours, 20 μM
  Significance of RTA difference vs. control: No
PC3, 48 hours, 40 μM
  Significance of RTA difference vs. control: No
PC3, 72 h
  IC50: 2.38 µM
PC3, 72 hours
  telomerase activity levels of treated groups compared to control: without any particular differences between the treated and control groups
PC3, 72 hours, 2.5 μM
  Significance of RTA difference vs. control: No
PC3, 72 hours, 5 μM
  Significance of RTA difference vs. control: No
PC3, 72 hours, 10 μM
  Significance of RTA difference vs. control: No
PC3, 72 hours, 20 μM
  Significance of RTA difference vs. control: Yes (*) (Yes (*): p < 0.05)
PC3, 72 hours, 40 μM
  Significance of RTA difference vs. control: No
  telomerase inhibition effect: exhibits a telomerase inhibition effect at 24 hours

## O=C1OC[C@H](Cc2cccc(O)c2)[C@H]1Cc1cccc(O)c1 (racemic) [Enterolactone, reference compound]
PC3, 2.5 μM, 24 Hours
  Telomerase Activity RTA (%): 61.02%
PC3, 2.5 μM, 48 Hours
  Telomerase Activity RTA (%): 3.50%
PC3, 2.5 μM, 72 Hours
  Telomerase Activity RTA (%): 13.88%
PC3, 5 μM, 24 Hours
  Telomerase Activity RTA (%): 55.90%
PC3, 5 μM, 48 Hours
  Telomerase Activity RTA (%): 3.31%
PC3, 5 μM, 72 Hours
  Telomerase Activity RTA (%): 10.65%
PC3, 10 μM, 24 Hours
  Telomerase Activity RTA (%): 62.45%
PC3, 10 μM, 48 Hours
  Telomerase Activity RTA (%): 17.89%
PC3, 10 μM, 72 Hours
  Telomerase Activity RTA (%): 12.63%
PC3, 20 μM, 24 Hours
  Telomerase Activity RTA (%): 56.77%
PC3, 20 μM, 48 Hours
  Telomerase Activity RTA (%): 25.39%
PC3, 20 μM, 72 Hours
  Telomerase Activity RTA (%): 5.15%
PC3, 40 μM, 24 Hours
  Telomerase Activity RTA (%): 43.75%
PC3, 40 μM, 48 Hours
  Telomerase Activity RTA (%): 70.42%
PC3, 40 μM, 72 Hours
  Telomerase Activity RTA (%): 6.57%
PC3, 24 h
  IC50: 21.9 µM
PC3, 24 hours
  telomerase activity levels of treated groups compared to control: lower telomerase activity levels compared to control
PC3, 24 hours, 2.5 μM
  Significance of RTA difference vs. control: No
PC3, 24 hours, 5 μM
  Significance of RTA difference vs. control: No
PC3, 24 hours, 10 μM
  Significance of RTA difference vs. control: No
PC3, 24 hours, 20 μM
  Significance of RTA difference vs. control: No
PC3, 24 hours, 40 μM
  Significance of RTA difference vs. control: Yes (*) (Yes (*): p < 0.05)
PC3, 48 h
  IC50: 0.05 µM
PC3, 48 hours
  telomerase activity levels of treated groups compared to control: four treated groups presented a reduction in RTA
PC3, 48 hours, 2.5 μM
  Significance of RTA difference vs. control: Yes (***) (Yes (***): p < 0.001)
PC3, 48 hours, 5 μM
  Significance of RTA difference vs. control: Yes (***) (Yes (***): p < 0.001)
PC3, 48 hours, 10 μM
  Significance of RTA difference vs. control: Yes (**) (Yes (**): p < 0.01)
PC3, 48 hours, 20 μM
  Significance of RTA difference vs. control: Yes (**) (Yes (**): p < 0.01)
PC3, 48 hours, 40 μM
  Significance of RTA difference vs. control: No
PC3, 72 h
  IC50: 10.7 µM
PC3, 72 hours
  telomerase activity levels of treated groups compared to control: no significant differences were detected between control and treated groups
PC3, 72 hours, 2.5 μM
  Significance of RTA difference vs. control: No
PC3, 72 hours, 5 μM
  Significance of RTA difference vs. control: No
PC3, 72 hours, 10 μM
  Significance of RTA difference vs. control: No
PC3, 72 hours, 20 μM
  Significance of RTA difference vs. control: No
PC3, 72 hours, 40 μM
  Significance of RTA difference vs. control: No

## O=C1OCC(Cc2ccc3c(c2)OCO3)/C1=C\c1cccc(O)c1 (single isomer, unassigned) [Enantiomer A, 3-[(3,4-dimethoxyphenyl)cyclopentyl], 4-[(3-hydroxyphenol)methyl]oxolan-2-one]
PC3, 2.5 μM, 24 Hours
  Telomerase Activity RTA (%): 49.67%
PC3, 2.5 μM, 48 Hours
  Telomerase Activity RTA (%): 21.48%
PC3, 2.5 μM, 72 Hours
  Telomerase Activity RTA (%): 18.63%
PC3, 5 μM, 24 Hours
  Telomerase Activity RTA (%): 44.11%
PC3, 5 μM, 48 Hours
  Telomerase Activity RTA (%): 7.86%
PC3, 5 μM, 72 Hours
  Telomerase Activity RTA (%): 15.77%
PC3, 10 μM, 24 Hours
  Telomerase Activity RTA (%): 20.76%
PC3, 10 μM, 48 Hours
  Telomerase Activity RTA (%): 3.60%
PC3, 10 μM, 72 Hours
  Telomerase Activity RTA (%): 19.40%
PC3, 20 μM, 24 Hours
  Telomerase Activity RTA (%): 22.61%
PC3, 20 μM, 48 Hours
  Telomerase Activity RTA (%): 2.51%
PC3, 20 μM, 72 Hours
  Telomerase Activity RTA (%): 5.20%
PC3, 40 μM, 24 Hours
  Telomerase Activity RTA (%): 29.78%
PC3, 40 μM, 48 Hours
  Telomerase Activity RTA (%): 6.23%
PC3, 40 μM, 72 Hours
  Telomerase Activity RTA (%): 1.48%
PC3, 24 h
  IC50: 5.18 µM
PC3, 24 hours
  telomerase activity levels of treated groups compared to control: lower telomerase activity levels compared to control
PC3, 24 hours, 2.5 μM
  Significance of RTA difference vs. control: No
PC3, 24 hours, 5 μM
  Significance of RTA difference vs. control: Yes (*) (Yes (*): p < 0.05)
PC3, 24 hours, 10 μM
  Significance of RTA difference vs. control: Yes (**) (Yes (**): p < 0.01)
PC3, 24 hours, 20 μM
  Significance of RTA difference vs. control: Yes (***) (Yes (***): p < 0.001)
PC3, 24 hours, 40 μM
  Significance of RTA difference vs. control: Yes (**) (Yes (**): p < 0.01)
PC3, 48 h
  IC50: 4.71 µM
PC3, 48 hours
  telomerase activity levels of treated groups compared to control: lower telomerase activity levels compared to control
PC3, 48 hours, 2.5 μM
  Significance of RTA difference vs. control: No
PC3, 48 hours, 5 μM
  Significance of RTA difference vs. control: Yes (*) (Yes (*): p < 0.05)
PC3, 48 hours, 10 μM
  Significance of RTA difference vs. control: Yes (**) (Yes (**): p < 0.01)
PC3, 48 hours, 20 μM
  Significance of RTA difference vs. control: Yes (**) (Yes (**): p < 0.01)
PC3, 48 hours, 40 μM
  Significance of RTA difference vs. control: Yes (*) (Yes (*): p < 0.05)
PC3, 72 h
  IC50: 18.7 µM
PC3, 72 hours
  telomerase activity levels of treated groups compared to control: lower telomerase activity levels compared to control
PC3, 72 hours, 2.5 μM
  Significance of RTA difference vs. control: No
PC3, 72 hours, 5 μM
  Significance of RTA difference vs. control: Yes (*) (Yes (*): p < 0.05)
PC3, 72 hours, 10 μM
  Significance of RTA difference vs. control: No
PC3, 72 hours, 20 μM
  Significance of RTA difference vs. control: Yes (*) (Yes (*): p < 0.05)
PC3, 72 hours, 40 μM
  Significance of RTA difference vs. control: Yes (**) (Yes (**): p < 0.01)
  telomerase inhibition effect: exhibits a telomerase inhibition effect in a PC3 prostate cancer cell line that is more prolonged throughout all time points
